Test results from US4368267A, “Epoxidation of lower α-olefins” (priority 1980, dated 1983).

Experiments:
[1] = test system: Methylococcus capsulatus (CRL M1, NRRL B-11,219); experiment: Oxidation/epoxidation by washed cell suspensions; format: cell-based
[2] = test system: Methylobacterium organophilum XX (ATCC 27,886); experiment: Methane hydroxylation and propylene epoxidation by washed cell suspensions; format: cell-based; settings: methane-grown washed cells, 30° C.
Procedure: (§1) The pH of the nutrient medium was adjusted to 7.0 by the addition of acid or base and 50 ml aliquots of the nutrient medium was charged into a plurality of 300 ml shake flasks. The shake flasks were inoculated with an inoculating loop of cells from an agar plate containing homogeneous colonies of the microorganisms on the plate (the purity of the isolates were confirmed by microscopic examination). The isolates had been maintained on agar plates under an atmosphere of methane and air having a 1:1 v/v gas ratio which had been transferred every two weeks. The gaseous phase of the inoculated flasks was then replaced with a gas mixture comprised of methane and air having a ratio of 1:1 on a v/v basis. The inoculated flasks were sealed air tight and were incubated on a rotary shaker of orbital radius 2.5 cm at 250 rpm and at 30° C. for two days until the turbidity in the medium had developed.
The cells were harvested by centrifugation at 10,000 ×g at 4° C. for 30 minutes. The cell pellet was washed twice with a 0.15 M phosphate buffer at a pH of 7.0 (containing 0.002 M MgCl2). […]
A 0.5 ml aliquot of each washed cell suspension (2 mg cells) was put into 10 ml vials at 4° C. which were sealed with a rubber cap. […] Samples of product (3 μl) were withdrawn periodically with a microsyringe and the products were analyzed by gas chromatography (ionization flame detector column).

[3] = test system: P(40), P(80), S(80) cell fractions of Methylosinus sp. (CRL-15, NRRL B-11,202); experiment: Oxidation of n-alkanes and n-alkenes by cell fractions; format: biochemical; settings: for Uninhibited rate of oxidation: no inhibitor; for NADH Oxidized / O2 Consumed / Product Formed: substrate 5.0 μmoles; for Rate of Product Formation (substrate to 1,2-epoxide or alcohol) / 100% activity, product formed (storage study) / 100% activity, product formed (pH study) / 100% activity, product formed (temperature study): P(40) particulate fraction; for 100% activity, product formed (storage study): before storage at 0°-4° C.; for 100% activity, product formed (pH study): optimum pH 7.0; for 100% activity, product formed (temperature study): optimum temperature 35° C.
Procedure: Cells were washed twice with 25 mM potassium phosphate buffer, pH 7.0 containing 5 mM MgCl2. Cells were suspended in the same buffer. The cell suspensions at 4° C. were disintegrated by a single passage through a French Pressure cell (15,000 lb./in.^2) and centrifuged at 5000×g. for 15 min. to remove unbroken bacteria. The supernatant solution (crude extract) was then centrifuged at 40,000×g. for 30 min., yielding particulate P(40) and soluble S(40) fractions. The S(40) fraction was subsequently centrifuged at 80,000×g. for 60 min., yielding particulate P(80) and soluble S(80) fractions. The particulate fractions [P(40) and P(80)] were suspended in 25 mM potassium phosphate buffer, pH 7.0, containing 5 mM MgCl2 and homogenized at 4° C.
[…] The reaction mixtures contained in 1.0 ml: 150 mM potassium phosphate buffer, pH 7.0 containing 5 mM MgCl2, 0.6 ml; […] NADH, and cellular fraction.
Reaction mixtures were contained in 10 ml vials at 4° C. Vials were sealed with rubber caps. The gaseous phase in the vials was removed using vacuum and then was replaced with a gas mixture of methane or propylene and oxygen at a 1:1, v/v ratio. Oxidation of other gaseous n-alkanes and n-alkenes was examined as described above. For liquid substrates, 10 μl of substrate was used directly.
The products of epoxidation of n-alkenes and hydroxylation of n-alkanes were assayed by flame ionization gas chromatography using a stainless steel column (12'×1/8") packed with 10% Carbowax 20 M on 80/100 Chromosorb W and Porapak Q column. The column temperature was maintained isothermally at 120° C. The carrier gas flow rate was 30 ml/min. of helium. The various products were identified by retention time comparisons and co-chromatography with authentic standards.
Specific activities were expressed as μ moles of products formed per hour per mg. protein. Concentrations of protein in various fractions were determined by the method of Lowry et al., J. Biol. Chem. 193: 265-275 (1951).

[4] = test system: Methylosinus trichosporium OB3b (NRRL B-11,196); experiment: Methane hydroxylation and alkene epoxidation by washed cell suspensions; format: cell-based; settings: for Propylene Oxide Formed: 3.6 mg cells; for Ability to hydroxylate methane or epoxidize C2 -C4 alkenes: methanol-grown washed cells
Procedure: as §1, with “The shake flasks were inoculated with an inoculating loop of cells from an agar plate containing homogeneous colonies of the microorganisms on the plate (the purity of the isolates were confirmed by microscopic examination).” left out
(§2) The cells were harvested by centrifugation at 10,000 ×g at 4° C. for 30 minutes. The cell pellet was washed twice with a 0.15 M phosphate buffer at a pH of 7.0 (containing 0.002 M MgCl2). The washed cells were then suspended in a 0.15 M phosphate buffer at pH 7.0.
[…] The gaseous phase of the vials was removed with vacuum and then was replaced with a gas mixture of alkene and oxygen at a 1:1 v/v ratio. It was then incubated at 30° C. on a rotary shaker at 300 rpm. Samples of product (3 μl) were withdrawn periodically with a microsyringe and the products were analyzed by gas chromatography (ionization flame detector column).

[5] = test system: Methylobacter capsulatus Y (NRRL B-11,201); experiment: Methane hydroxylation and propylene epoxidation by washed cell suspensions; format: cell-based; settings: for Ability to hydroxylate methane or epoxidize C2 -C4 alkenes: methanol-grown washed cells
[6] = test system: Methylomonas albus BG8 (NRRL B-11,200); experiment: Methane hydroxylation and alkene epoxidation by washed cell suspensions; format: cell-based; settings: methane-grown washed cells, 30° C.
Procedure: as §1, with “The shake flasks were inoculated with an inoculating loop of cells from an agar plate containing homogeneous colonies of the microorganisms on the plate (the purity of the isolates were confirmed by microscopic examination).” left out
as §2
(§3) A 0.5 ml aliquot of each washed cell suspension (2 mg cells) was put into 10 ml vials at 4° C. which were sealed with a rubber cap. The gaseous phase of the vials was removed with vacuum and then was replaced with a gas mixture of alkene and oxygen at a 1:1 v/v ratio. It was then incubated at 30° C. on a rotary shaker at 300 rpm. Samples of product (3 μl) were withdrawn periodically with a microsyringe and the products were analyzed by gas chromatography (ionization flame detector column).

[7] = test system: Methylocystis parvus OBBP (NRRL B-11,198); experiment: as above; format: cell-based; settings: for Ability to hydroxylate methane or epoxidize C2 -C4 alkenes: methanol-grown washed cells
Procedure: (§4) The pH of the nutrient medium was adjusted to 7.0 by the addition of acid or base and 50 ml aliquots of the nutrient medium was charged into a plurality of 300 ml shake flasks. […] The isolates had been maintained on agar plates under an atmosphere of methane and air having a 1:1 v/v gas ratio which had been transferred every two weeks. […] The inoculated flasks were sealed air tight and were incubated on a rotary shaker of orbital radius 2.5 cm at 250 rpm and at 30° C. for two days until the turbidity in the medium had developed.
as §2, §3

[8] = test system: Methylomonas methanica S1 (NRRL B-11,199); experiment: as above; format: cell-based; settings: for Ability to hydroxylate methane or epoxidize C2 -C4 alkenes: methanol-grown washed cells
Procedure: as §4, §2, §3

[9] = Propylene + Methane + O2 (25:25:50 v/v), 15 minutes
[10] = methane-grown washed cells, 30° C.

SMILES: C [Methane]
- Epoxidation Rate, Propylene oxide ([1]; Propylene + 5% methane, 1 Hr): 2.0 μmoles/0.5 ml
- Epoxidation Rate, Propylene oxide ([1]; Propylene + 5% methane, 2 Hr): 4.0 μmoles/0.5 ml
- Epoxidation Rate, Propylene oxide ([1]; Propylene + 5% methane, 3 Hr): 4.1 μmoles/0.5 ml
- Epoxidation Rate, Propylene oxide ([1]; Propylene + 7% methane, 1 Hr): 2.3 μmoles/0.5 ml
- Epoxidation Rate, Propylene oxide ([1]; Propylene + 7% methane, 2 Hr): 4.7 μmoles/0.5 ml
- Epoxidation Rate, Propylene oxide ([1]; Propylene + 7% methane, 3 Hr): 4.8 μmoles/0.5 ml
- Epoxidation Rate, Propylene oxide ([1]; Propylene + 15% methane, 1 Hr): 3.5 μmoles/0.5 ml
- Epoxidation Rate, Propylene oxide ([1]; Propylene + 15% methane, 2 Hr): 6.4 μmoles/0.5 ml
- Epoxidation Rate, Propylene oxide ([1]; Propylene + 15% methane, 3 Hr): 6.5 μmoles/0.5 ml
- Epoxidation Rate, Propylene oxide ([1]; Propylene + 20% methane, 1 Hr): 3.8 μmoles/0.5 ml
- Epoxidation Rate, Propylene oxide ([1]; Propylene + 20% methane, 2 Hr): 7.1 μmoles/0.5 ml
- Epoxidation Rate, Propylene oxide ([1]; Propylene + 20% methane, 3 Hr): 7.2 μmoles/0.5 ml
- Inhibition of epoxidation of propylene to propylene oxide ([1]; cell suspension, in the presence of methane): 50%
- Conversion rate, methane hydroxylation [2]: 1.0 μmole/hr/mg protein
- Methane-Oxidizing Activity, P(40) ([3]; P(40) fraction, 30° C.): 4.8 μmoles of product formed per h
- Uninhibited rate of oxidation ([3]; P(40) fraction): 4.5 μmoles per hr. per mg. of prot
- NADH Oxidized ([3]; P(40) fraction): 4.8 µmol
- O2 Consumed ([3]; P(40) fraction): 4.6 µmol
- Product Formed ([3]; P(40) fraction): 4.2 µmol
- Propylene Oxide Produced ([3]; P(40) fraction, substrate Propylene + Methane (1:1, v/v)): 1.8 μmoles/hr/mg. protein
- Propylene Oxide Produced ([3]; P(40) fraction, substrate methane alone): 0 μmoles/hr/mg. protein
- Rate of Product Formation (substrate to 1,2-epoxide or alcohol) ([3]; 30° C.): 4.8 μmoles/hr/mg of protein
- 100% activity, product formed (storage study) [3]: 4.8 μmoles per hr. per mg. of prot
- 100% activity, product formed (pH study) [3]: 4.8 μmoles per hour, per mg protei
- 100% activity, product formed (temperature study) [3]: 5.0 μmoles per hour per mg of prot
- Methane-Oxidizing Activity, P(80) ([3]; P(80) fraction, 30° C.): 4.2 μmoles of product formed per h
- Methane-Oxidizing Activity, S(80) ([3]; S(80) fraction, 30° C.): 0 μmoles of product formed per h
- Propylene Oxide Formed [4, 9]: 0.8 µmol
- % Inhibition of propylene epoxidation [4, 9]: 50%
- Conversion rate, methane hydroxylation (methane to methanol) [4, 10]: 1.5 μmole/hr/mg protein
- Ability to hydroxylate methane or epoxidize C2 -C4 alkenes [4]: did not possess the ability
- Conversion rate, methane hydroxylation [5, 10]: 1.2 μmole/hr/mg protein
- Ability to hydroxylate methane or epoxidize C2 -C4 alkenes [5]: did not possess the ability
- Conversion rate, methane hydroxylation [6]: 1.8 μmole/hr/mg protein
- Conversion rate, methane hydroxylation [7, 10]: 0.7 μmole/hr/mg protein
- Ability to hydroxylate methane or epoxidize C2 -C4 alkenes [7]: did not possess the ability
- Conversion rate, methane hydroxylation [8, 10]: 1.3 μmole/hr/mg protein
- Ability to hydroxylate methane or epoxidize C2 -C4 alkenes [8]: did not possess the ability

SMILES: C=CC [Propylene]
- Epoxidation Rate, Propylene oxide ([1]; propylene alone (control), 1 Hr, 50% O2): 2.0 μmoles/0.5 ml
- Epoxidation Rate, Propylene oxide ([1]; propylene alone (control), 2 Hr): 3.8 μmoles/0.5 ml
- Conversion rate, propylene to propylene oxide [2]: 1.8 μmole/hr/mg protein
- Propylene-Oxidizing Activity, P(40) ([3]; P(40) fraction, 30° C.): 3.8 μmoles of product formed per h
- Uninhibited rate of oxidation ([3]; P(40) fraction): 4.1 μmoles per hr. per mg. of prot
- NADH Oxidized ([3]; P(40) fraction): 5.0 µmol
- O2 Consumed ([3]; P(40) fraction): 4.8 µmol
- Product Formed ([3]; P(40) fraction): 4.5 µmol
- Propylene Oxide Produced ([3]; P(40) fraction, substrate propylene alone): 4.3 μmoles/hr/mg. protein
- Rate of Product Formation (substrate to 1,2-epoxide or alcohol) ([3]; 30° C.): 4.1 μmoles/hr/mg of protein
- 100% activity, product formed (storage study) [3]: 4.1 μmoles per hr. per mg. of prot
- 100% activity, product formed (pH study) [3]: 4.1 μmoles per hour, per mg protei
- 100% activity, product formed (temperature study) [3]: 4.2 μmoles per hour per mg of prot
- Propylene-Oxidizing Activity, P(80) ([3]; P(80) fraction, 30° C.): 3.7 μmoles of product formed per h
- Propylene-Oxidizing Activity, S(80) ([3]; S(80) fraction, 30° C.): 0 μmoles of product formed per h
- Propylene Oxide Formed ([4]; Propylene + Helium + O2 (25:25:50 v/v), 15 minutes): 1.6 µmol
- Conversion rate, propylene to propylene oxide [4, 10]: 3.6 μmole/hr/mg protein
- Ability to hydroxylate methane or epoxidize C2 -C4 alkenes [4]: did not possess the ability
- Ability to hydroxylate methane or epoxidize C2 -C4 alkenes [5]: did not possess the ability
- Conversion rate, propylene to propylene oxide [6]: 1.4 μmole/hr/mg protein
- Conversion rate, propylene to propylene oxide [7, 10]: 1.6 μmole/hr/mg protein
- Ability to hydroxylate methane or epoxidize C2 -C4 alkenes [7]: did not possess the ability
- Conversion rate, propylene to propylene oxide [8, 10]: 2.7 μmole/hr/mg protein
- Ability to hydroxylate methane or epoxidize C2 -C4 alkenes [8]: did not possess the ability
